Measurements from patent US6974871B2, “Dequalinium analogs” (priority 2000, dated 2005).
“And” between values parts separate entries of the source, which are not always exact repeats. Equal entries are not always repeated. One block for each molecule: values may come before it.

Legend:
Recombinant human PKCα = biological target: T1, Recombinant human PKCα (Homo sapiens, UniProt P17252); test: Assay of PKCα catalytic activity in vitro; format: biochemical; conditions: for IC50: reversible binding conditions, average of two or more independent experiments (± s.d.), read-out: IC50 (analogue concentration producing 50% inhibition of PKCα activity); for fold stronger inhibitory potency compared with C6-DECA (1a): IC50 ratio versus 1a; for fold stronger inhibitory potency than 1c: IC50 ratio versus 1c (C10-DECA)
T1 construct: purchased PanVera Corp., Madison, Wis
Method: Assay of PKCα Catalytic Activity In Vitro
(§1) Recombinant human PKCα (>95% pure) (PanVera Corp., Madison, Wis.) was used for testing DECA analogues in vitro. Total PKCα catalytic activity (36 ng protein) and the indicated concentration of DECA analogue was measured in triplicate in the presence of activating cofactors (10 μg phosphatidylserine, 0.5 mM Ca^2+) by the transfer of ^32P from [γ-^32P]-ATP to the modified pseudosubstrate peptide (RFARKGSLRQKNV), as described elsewhere^1. For assay of partially purified B16 F10 cell lysates (25 μg/assay), PKC activity was taken as the difference in phosphotransferase activity measured in triplicate in the presence and absence of activating cofactors (10 μg phosphatidylserine, 0.5 mM Ca^2+) as previously described^2.

[1] = biological target: pp60src tyrosine protein kinase (Homo sapiens, UniProt P12931); test: Inhibition of homologous protein kinase pp60src; format: biochemical; conditions: micromolar concentrations
Sequence of pp60src tyrosine protein kinase (P12931 whole entry): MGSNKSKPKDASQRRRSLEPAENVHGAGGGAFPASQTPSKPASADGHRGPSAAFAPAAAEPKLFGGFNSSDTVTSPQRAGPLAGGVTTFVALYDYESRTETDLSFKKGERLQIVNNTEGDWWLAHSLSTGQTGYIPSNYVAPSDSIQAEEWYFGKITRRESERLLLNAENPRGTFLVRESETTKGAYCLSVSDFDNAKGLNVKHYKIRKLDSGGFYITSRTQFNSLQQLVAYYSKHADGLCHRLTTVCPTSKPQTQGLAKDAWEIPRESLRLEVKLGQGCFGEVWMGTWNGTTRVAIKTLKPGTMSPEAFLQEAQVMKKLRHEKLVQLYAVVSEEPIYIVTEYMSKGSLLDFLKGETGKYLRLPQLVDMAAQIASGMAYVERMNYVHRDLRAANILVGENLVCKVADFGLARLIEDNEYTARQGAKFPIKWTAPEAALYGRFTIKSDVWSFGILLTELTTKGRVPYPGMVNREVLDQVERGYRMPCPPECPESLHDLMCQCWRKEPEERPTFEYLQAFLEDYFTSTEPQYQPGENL

[2] = biological target: cAMP-dependent protein kinase (PKA) (Homo sapiens, UniProt P17612); test: Inhibition of homologous protein kinase PKA; format: biochemical; conditions: micromolar concentrations
[3] = biological target: protein kinase C (PKC) isoforms (e.g., α, β1); conditions: several isoforms (e.g., α, β1); read-out: IC50 for PKC isoforms in vitro; cited from earlier work
[4] = tested on: murine melanoma B16 F10 cells; test: Cell migration in transwell (Boyden chamber); format: cell-based; conditions: for inhibition of cell migration: 250 nM plus UV 5 min, initial 3 h post-treatment, Boyden chamber
Method: A 12-mm Costar transwell (Boyden chamber) having a 12-μm pore size was used to measure cell movement across a porous polycarbonate membrane. The bottom surface was coated with 35 μg Matrigel for 1 h at 37° C., 5% CO2. Cells were seeded into the upper chamber of the transwell at 10^5 cells/well and incubated at 37° C., 5% CO2. Following incubation for 3 h, the upper chamber was carefully wiped with a cotton swab in order to remove cells that remained on the upper membrane surface. Those cells that had migrated to the lower membrane surface were fixed and stained by the H+E Method (Fisher Diagnostics Leukostat). By use of a Nikon Diaphot-TMD inverted microscope at 400× magnification, eight fields of adherent cells were randomly counted in each well and numerically averaged. Each condition was conducted in triplicate and statistical significance was determined by ANOVA using SigmaStat software.
Inhibition of cell migration by 250 nM DECA analogues (C10-(control), C12-, and C14-DECA) was analyzed during the initial 3 h post-treatment by the use of Boyden chambers. Cells that had been treated with a DECA analogue plus UV were applied to the upper surface of the membrane whereupon they moved chemotactically through the membrane, and adhered to Matrigel, which had been coated onto the under surface of the membrane. Following the initial 3 h, the number of cells migrating to this lower surface was measured.
A confluent monolayer of cells was washed twice with PBS and the indicated concentration of DECA analogue was added to the cells in serum-free medium. Cells were treated with or without the drug for 1 h at 37° C., 5% CO2, followed by washing with PBS. In PBS and with the lids off, cells were irradiated with longwave UV light for 5-min (1200 μW/cm^2). Irradiation was carried out with a longwave UV lamp (American Ultraviolet Co., Murray Hill, N.J.) while the plate of cells were subjected to gentle shaking at room temperature. Following this treatment, the medium was removed and the cells were washed twice with PBS. […]

[5] = tested on: calmodulin-dependent myosin light chain kinase; test: Inhibition of homologous protein kinase MLCK; format: biochemical; conditions: micromolar concentrations
[6] = tested on: murine melanoma B16 F10 cells; test: Time-lapse cell motility (scratch wound) assay; format: cell-based; conditions: 250 nM plus UV 5 min
Method: To measure cell motility by digital image capture, an Olympus IMT-2 inverted phase contrast microscope (Olympus Microscopes, UK), fitted with a Fujitsu TC2-336P CCD camera (EOS Electronics AV Ltd, Barry, Wales) and surrounded by a perspex temperature-regulated jacket that was adjusted to 37° C. Cells were plated onto 3-cm^2 petri dishes such that a densely confluent monolayer was achieved within 24 or 48 h. Following treatment of cells with C10-DECA and UV, a ‘scratch wound’ was created by drawing a sterile micro-pipette tip along the monolayer using a ruler as a guide. Detached cells were removed by washing twice in growth medium before adding 2 ml fresh medium. […] The chamber was gassed with 10% CO2 in humidified air and was placed onto the stage of the microscope. A regular wound edge was chosen and digital images were collected every 30 min for 8 h onto a Power Mac 7100 using Adobe Premier software. The percentage of the capture window (determined as 726 μm×544 μm) that had been filled in by the movement of cells (normalized to the original wound edge) was determined with Optilab software and plotted against time.
(§2) A confluent monolayer of cells was washed twice with PBS and the indicated concentration of DECA analogue was added to the cells in serum-free medium. Cells were treated with or without the drug for 1 h at 37° C., 5% CO2, followed by washing with PBS. […]

intracellular PKCα = biological target: T2, intracellular PKCα (Mus musculus, UniProt P20444); test: Photoinduced inactivation of intracellular PKC activity in melanoma cells (DECA analogue plus longwave UV); format: cell-based, murine; conditions: B16 F10 cells; for inhibition at 0.25 µM: 250 nM, 1 h, plus UV irradiation 5 min
T2 construct: endogenous in cells; host or cells: murine melanoma B16 F10 cells
Method: as §1
Inactivation of PKCα in Murine Melanoma Cells with Ultraviolet Radiation and DECA Analogues
Murine melanoma B16 F10 cells were cultured in 15 cm^2 dishes to 75-80% confluence in RPMI medium containing 10% fetal bovine serum, 1% penicillin/streptomycin, and 0.125 μg/ml fungizone. Prior to drug application, cells were washed twice with phosphate buffered saline (PBS) and were restored in serum-free medium containing either DMSO (0.1% v/v) or 250 nM C12-, C14-, or C16-DECA analogue. Monolayers of cells were treated with or without the indicated DECA analogue for 1 h and irradiated for 5-min (1200 μW/cm^2) with a UV lamp (American Ultraviolet Co., Murray Hill, N.J.). Following this treatment, the medium was removed and the cells were washed twice with PBS. Preparation of cell lysates was followed by partial purification by DEAE-Sephacel chromatography, as previously described^2.
as §2, with “PBS. In PBS and with the lids off, cells were irradiated with longwave UV light for 5-min (1200 μW/cm^2).” for “PBS.”

B16F10 cells = test: Experimental metastasis in mice (B16F10 tail vein injection, pulmonary nodules); format: in vivo, C57BL/6 mice; conditions: 5 mg/kg IP every other day for 2 weeks, versus vehicle
Method: In preparation for tail vein injections, mice were tranquilized with 0.2 mg of acepromazine via i.p. injections. B16F10 cells obtained from ex-vivo culture were injected into the tail vein (10^5 cells/0.2 ml). Animals were treated IP with vehicle (0.36% sodium citrate) or 5 mg/kg of C14-DECA on the day of the tail vein injection and every other day thereafter for a 2-3 week experiment. At the end of the experimental period, the mice were sacrificed by CO2 asphyxiation. The lungs were removed and placed in 10% formalin until the metastatic nodules were counted using a dissecting microscope.

Structure (SMILES): Cc1cc(N)c2ccccc2[n+]1CCCCCC[n+]1c(C)cc(N)c2ccccc21 [Compound 1a]
IC50 (Recombinant human PKCα): 54 µM

IC50 (Recombinant human PKCα): 25 ± 9 µM
Structure (SMILES): Cc1cc(N)c2ccccc2[n+]1CCCCCCCC[n+]1c(C)cc(N)c2ccccc21 [Compound 1b]

sensitivity of pp60src tyrosine protein kinase to inhibition [1]: insensitive
sensitivity of PKA to inhibition [2]: insensitive
IC50 (Recombinant human PKCα): 11 µM and 11 to 12 µM
sensitivity of calmodulin-dependent myosin light chain kinase to inhibition [5]: insensitive
inhibition at 0.25 µM (intracellular PKCα): 35%
Structure (SMILES): Cc1cc(N)c2ccccc2[n+]1CCCCCCCCCC[n+]1c(C)cc(N)c2ccccc21 [Compound 1c, quinolinium, 1,1′-(1,10-decanediyl)bis(4-amino-2-methyldiiodide)]
IC50 [3]: 10 to 14 µM
inhibition of cell migration [4]: 20-30%
loss of cell motility [6]: 33%

Structure (SMILES): Cc1cc(N)c2ccccc2[n+]1CCCCCCCCCCCC[n+]1c(C)cc(N)c2ccccc21 [Compound 1d, 1,1′-(1,12-Dodecanediyl)bis[4-amino-2-methyl]quinolinium, diiodide]
IC50 (Recombinant human PKCα): 5 ± 2 µM

Structure (SMILES): Cc1cc(N)c2ccccc2[n+]1CCCCCCCCCCCCCC[n+]1c(C)cc(N)c2ccccc21 [Compound 1e, 1,1′-(1,14-Tetradecanediyl)bis[4-amino-2-methyl]quinolinium, diiodide]
fewer pulmonary nodules (B16F10 cells): 40%
inhibition of cell migration [4]: 40-60%
concentration dependence of inhibition of cell migration ([4]; range of 0-500 nM): dose-dependent
fold stronger inhibitory potency compared with C6-DECA (1a) (Recombinant human PKCα): 20 fold
fold stronger inhibitory potency than 1c (Recombinant human PKCα): 4 fold
IC50 (Recombinant human PKCα): 2.6 µM and 2.5 µM
inhibition of intracellular PKC activity without UV (intracellular PKCα; 250 nM alone, no UV): no inhibitory effect
inhibition at 0.25 µM (intracellular PKCα): 40 to 60%

Structure (SMILES): Cc1cc(N)c2ccccc2[n+]1CCCCCCCCCCCCCCCC[n+]1c(C)cc(N)c2ccccc21 [Compound 1f, 1,1′-(1,16-Hexadecanediyl)bis[4-amino-2-methyl]quinolinium, diiodide]
fold stronger inhibitory potency compared with C6-DECA (1a) (Recombinant human PKCα): 20 fold
fold stronger inhibitory potency than 1c (Recombinant human PKCα): 4 fold
IC50 (Recombinant human PKCα): 2.6 µM and 2.8 µM

IC50 (Recombinant human PKCα): 117 ± 8 µM
Structure (SMILES): CCCCCCCCCC[n+]1c(C)cc(N)c2ccccc21 [Compound 2, N-Decyl-4-aminoquinaldinium iodide]

IC50 (Recombinant human PKCα): 3590 ± 510 µM
Structure (SMILES): Cc1cc(N)c2ccccc2[n+]1C [Compound 3]
